Assays:
CYP3A4 = CYP3A4 (Homo sapiens, UniProt P08684); test: Inhibition of CYP3A4 (unknown origin) at 10 uM relative to control; format: ADME
[1] = target: Tyrosine-protein kinase HCK (Homo sapiens) (UniProt P08631); test: Inhibition of human HCK assessed as residual activity at 1 uM using polyEY as substrate in presence of 33P-ATP by ProQinase assay relative to control
[2] = target: Serine/threonine-protein kinase NIM1 (Homo sapiens) (UniProt Q8IY84); test: Inhibition of NIM1 (unknown origin) assessed as remaining activity at 1 uM by Kinome scan method relative to control
Sequence of Serine/threonine-protein kinase NIM1 (Homo sapiens) (Q8IY84 whole entry): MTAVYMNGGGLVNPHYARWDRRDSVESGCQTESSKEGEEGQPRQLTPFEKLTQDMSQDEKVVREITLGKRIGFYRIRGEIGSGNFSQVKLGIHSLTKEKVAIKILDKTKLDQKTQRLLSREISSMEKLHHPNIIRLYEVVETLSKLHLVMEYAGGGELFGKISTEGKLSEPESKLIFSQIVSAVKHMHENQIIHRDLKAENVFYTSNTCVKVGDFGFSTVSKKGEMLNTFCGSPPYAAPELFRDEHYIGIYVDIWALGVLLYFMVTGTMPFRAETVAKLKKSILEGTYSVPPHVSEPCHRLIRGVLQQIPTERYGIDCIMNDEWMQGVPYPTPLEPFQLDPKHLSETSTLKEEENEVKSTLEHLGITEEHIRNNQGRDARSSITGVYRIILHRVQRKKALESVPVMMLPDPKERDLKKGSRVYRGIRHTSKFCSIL

[3] = target: AP2-associated protein kinase 1 (Homo sapiens) (UniProt Q2M2I8); test: Inhibition of AAK1 (unknown origin) assessed as remaining activity at 1 uM by Kinome scan method relative to control
[4] = target: Dual specificity tyrosine-phosphorylation-regulated kinase 1A (Homo sapiens) (UniProt Q13627); test: Inhibition of human DYRK1A assessed as residual activity at 1 uM using RBER-CHKtide as substrate in presence of 33P-ATP by ProQinase assay relative to control
[5] = target: Ephrin type-A receptor 2 (Homo sapiens) (UniProt P29317); test: Inhibition of human EPHA2 assessed as residual activity at 1 uM using polyEy as substrate in presence of 33P-ATP by ProQinase assay relative to control
[6] = target: Calcium/calmodulin-dependent protein kinase kinase 2 (Homo sapiens) (UniProt Q96RR4); test: Inhibition of CAMKK2 (unknown origin) assessed as remaining activity at 1 uM by Kinome scan method relative to control
Sequence of Calcium/calmodulin-dependent protein kinase kinase 2 (Homo sapiens) (Q96RR4 2-588 limits assumed): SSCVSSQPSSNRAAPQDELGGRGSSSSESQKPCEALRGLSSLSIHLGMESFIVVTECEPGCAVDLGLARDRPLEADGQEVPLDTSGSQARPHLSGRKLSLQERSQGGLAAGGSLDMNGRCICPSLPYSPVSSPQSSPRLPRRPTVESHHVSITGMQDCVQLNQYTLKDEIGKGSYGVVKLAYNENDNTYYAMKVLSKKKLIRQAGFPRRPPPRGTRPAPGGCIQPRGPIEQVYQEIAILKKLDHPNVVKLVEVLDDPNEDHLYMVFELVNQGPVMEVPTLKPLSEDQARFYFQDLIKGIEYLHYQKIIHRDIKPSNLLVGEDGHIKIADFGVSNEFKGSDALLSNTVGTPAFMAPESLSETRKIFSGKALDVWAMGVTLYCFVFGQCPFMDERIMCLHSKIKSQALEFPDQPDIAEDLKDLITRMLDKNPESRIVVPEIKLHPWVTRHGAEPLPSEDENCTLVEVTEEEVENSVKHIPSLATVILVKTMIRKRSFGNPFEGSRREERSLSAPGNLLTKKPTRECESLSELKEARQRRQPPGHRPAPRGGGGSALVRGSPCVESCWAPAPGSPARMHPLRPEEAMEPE

[7] = target: Tyrosine-protein kinase CSK (Homo sapiens) (UniProt P41240); test: Inhibition of CSK (unknown origin) assessed as remaining activity at 1 uM by Kinome scan method relative to control
[8] = test system: Epidermal growth factor receptor (Homo sapiens), P00533 [L858R]; test: Inhibition of EGFR L858R mutant (unknown origin) assessed as remaining activity at 1 uM by Kinome scan method relative to control
[9] = target: Activated CDC42 kinase 1 (Homo sapiens) (UniProt Q07912); test: Inhibition of human ACK1 assessed as residual activity at 1 uM using PolyEY as substrate in presence of 33P-ATP by ProQinase assay relative to control
Sequence of Activated CDC42 kinase 1 (Homo sapiens) (Q07912 whole entry, looked up): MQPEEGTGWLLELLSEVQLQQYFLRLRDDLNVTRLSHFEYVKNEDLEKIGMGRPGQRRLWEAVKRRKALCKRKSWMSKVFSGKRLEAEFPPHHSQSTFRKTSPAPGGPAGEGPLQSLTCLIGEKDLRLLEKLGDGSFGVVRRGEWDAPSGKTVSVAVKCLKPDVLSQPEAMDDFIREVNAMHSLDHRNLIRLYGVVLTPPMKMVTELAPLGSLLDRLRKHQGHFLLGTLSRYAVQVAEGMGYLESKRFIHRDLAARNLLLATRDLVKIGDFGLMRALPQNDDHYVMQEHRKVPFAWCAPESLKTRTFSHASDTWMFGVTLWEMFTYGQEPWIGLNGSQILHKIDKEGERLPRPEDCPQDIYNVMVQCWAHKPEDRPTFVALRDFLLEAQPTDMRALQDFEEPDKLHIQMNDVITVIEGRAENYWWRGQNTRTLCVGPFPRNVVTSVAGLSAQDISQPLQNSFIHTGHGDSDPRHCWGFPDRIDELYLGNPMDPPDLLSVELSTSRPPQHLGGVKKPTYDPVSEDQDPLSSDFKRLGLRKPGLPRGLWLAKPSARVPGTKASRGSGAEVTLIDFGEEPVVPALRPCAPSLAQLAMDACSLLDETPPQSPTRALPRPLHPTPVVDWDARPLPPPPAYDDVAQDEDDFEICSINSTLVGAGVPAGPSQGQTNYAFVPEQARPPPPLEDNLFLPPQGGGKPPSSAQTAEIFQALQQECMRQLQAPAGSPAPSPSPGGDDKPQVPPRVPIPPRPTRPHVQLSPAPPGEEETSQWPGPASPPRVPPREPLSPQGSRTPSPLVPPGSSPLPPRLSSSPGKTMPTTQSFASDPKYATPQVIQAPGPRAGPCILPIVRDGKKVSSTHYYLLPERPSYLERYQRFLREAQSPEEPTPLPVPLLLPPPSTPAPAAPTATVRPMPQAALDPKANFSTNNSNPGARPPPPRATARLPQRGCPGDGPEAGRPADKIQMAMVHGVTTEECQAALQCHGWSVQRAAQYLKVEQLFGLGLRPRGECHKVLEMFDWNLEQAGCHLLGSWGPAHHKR

[10] = target: Inhibitor of nuclear factor kappa-B kinase subunit epsilon (Homo sapiens) (UniProt Q14164); test: Inhibition of human IKKepsilon assessed as residual activity at 1 uM using RBER-GSK3 as substrate in presence of 33P-ATP by ProQinase assay relative to control
[11] = target: Ribosomal protein S6 kinase alpha-2 (Homo sapiens) (UniProt Q15349); test: Inhibition of human RPS6KA2 assessed as residual activity at 1 uM using bio-4xCHKT as substrate in presence of 33P-ATP by ProQinase assay relative to control
[12] = target: Serine/threonine-protein kinase TBK1 (Homo sapiens) (UniProt Q9UHD2); test: Inhibition of human TBK1 assessed as residual activity at 1 uM using casein as substrate in presence of 33P-ATP by ProQinase assay relative to control
[13] = target: TGF-beta receptor type-2 (Homo sapiens) (UniProt P37173); test: Inhibition of human TGFBR2 assessed as residual activity at 1 uM using RB-S6P as substrate in presence of 33P-ATP by ProQinase assay relative to control
[14] = target: Tyrosine-protein kinase Lyn (Homo sapiens) (UniProt P07948); test: Inhibition of human LYN assessed as residual activity at 1 uM using polyEY as substrate in presence of 33P-ATP by ProQinase assay relative to control
[15] = target: Tyrosine-protein kinase BTK (Homo sapiens) (UniProt Q06187); test: Inhibition of human BTK assessed as residual activity at 1 uM using PolyEY as substrate in presence of 33P-ATP by ProQinase assay relative to control
[16] = target: Calcium/calmodulin-dependent protein kinase type 1G (Homo sapiens) (UniProt Q96NX5); test: Inhibition of CAMK1G (unknown origin) assessed as remaining activity at 1 uM by Kinome scan method relative to control
Sequence of Calcium/calmodulin-dependent protein kinase type 1G (Homo sapiens) (Q96NX5 whole entry): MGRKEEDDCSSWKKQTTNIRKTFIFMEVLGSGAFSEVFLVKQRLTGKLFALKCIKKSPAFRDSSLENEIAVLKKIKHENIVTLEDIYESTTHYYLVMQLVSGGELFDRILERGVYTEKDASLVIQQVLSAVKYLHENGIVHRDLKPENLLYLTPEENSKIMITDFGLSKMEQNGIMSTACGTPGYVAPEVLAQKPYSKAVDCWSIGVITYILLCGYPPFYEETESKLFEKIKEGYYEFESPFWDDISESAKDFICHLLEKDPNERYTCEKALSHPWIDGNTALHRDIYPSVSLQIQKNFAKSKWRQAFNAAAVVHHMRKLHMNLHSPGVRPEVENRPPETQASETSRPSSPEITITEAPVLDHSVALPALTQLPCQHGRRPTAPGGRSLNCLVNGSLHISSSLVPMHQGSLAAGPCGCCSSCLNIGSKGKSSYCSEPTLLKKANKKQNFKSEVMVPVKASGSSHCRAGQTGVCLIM

[17] = target: Myosin light chain kinase 2, skeletal/cardiac muscle (Homo sapiens) (UniProt Q9H1R3); test: Inhibition of human MYLK2 assessed as residual activity at 1 uM using RB-S6P as substrate in presence of 33P-ATP by ProQinase assay relative to control
CYP2D6 = CYP2D6 (Homo sapiens, UniProt P10635); test: Inhibition of CYP2D6 (unknown origin) at 10 uM relative to control; format: ADME
[18] = target: Homeodomain-interacting protein kinase 1 (Homo sapiens) (UniProt Q86Z02); test: Inhibition of human HIPK1 assessed as residual activity at 1 uM using RBER-CHKtide as substrate in presence of 33P-ATP by ProQinase assay relative to control
[19] = Anti-inflammatory activity against human derived high respond PBMC cells assessed as inhibition in stimulated IL-1beta cytokine release incubated for 2 hrs in the presence of LPS/SEB/aCD28 by Luminex based sandwich immunoassay; format: functional, cell-based
[20] = target: Mitogen-activated protein kinase 3 (Homo sapiens) (UniProt P27361); test: Inhibition of ERK1 (unknown origin) assessed as remaining activity at 1 uM by Kinome scan method relative to control
[21] = target: Glycogen synthase kinase-3 beta (Homo sapiens) (UniProt P49841); test: Inhibition of GSK3beta (unknown origin) assessed as remaining activity at 1 uM by Kinome scan method relative to control
[22] = target: Serine/threonine-protein kinase Chk2 (Homo sapiens) (UniProt O96017); test: Inhibition of CHEK2 (unknown origin) assessed as remaining activity at 1 uM by Kinome scan method relative to control
Sequence of Serine/threonine-protein kinase Chk2 (Homo sapiens) (O96017 whole entry): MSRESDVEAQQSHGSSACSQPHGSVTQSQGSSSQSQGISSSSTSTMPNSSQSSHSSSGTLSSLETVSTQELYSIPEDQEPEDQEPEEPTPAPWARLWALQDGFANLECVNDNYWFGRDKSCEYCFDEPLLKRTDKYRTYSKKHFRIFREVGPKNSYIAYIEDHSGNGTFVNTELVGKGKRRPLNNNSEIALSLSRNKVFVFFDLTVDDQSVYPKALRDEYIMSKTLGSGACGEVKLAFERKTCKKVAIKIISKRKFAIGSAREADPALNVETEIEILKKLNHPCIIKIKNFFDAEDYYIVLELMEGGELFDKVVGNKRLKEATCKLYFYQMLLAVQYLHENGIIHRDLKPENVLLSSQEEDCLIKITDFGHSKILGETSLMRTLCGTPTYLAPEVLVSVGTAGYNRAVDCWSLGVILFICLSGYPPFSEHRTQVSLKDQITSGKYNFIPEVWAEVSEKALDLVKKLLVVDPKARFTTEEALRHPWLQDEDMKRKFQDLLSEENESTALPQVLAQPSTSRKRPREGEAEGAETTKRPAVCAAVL

[23] = target: CDK2/Cyclin A2 (Homo sapiens) (UniProt P24941+P20248); test: Inhibition of human CDK2/CycA2 assessed as residual activity at 1 uM using RBER-CHKtide as substrate in presence of 33P-ATP by ProQinase assay relative to control; format: protein-complex assay
[24] = target: G protein-coupled receptor kinase 4 (Homo sapiens) (UniProt P32298); test: Inhibition of human GRK4 assessed as residual activity at 1 uM using casein as substrate in presence of 33P-ATP by ProQinase assay relative to control
[25] = target: Serine/threonine-protein kinase PAK 1 (Homo sapiens) (UniProt Q13153); test: Inhibition of human PAK1 assessed as residual activity at 1 uM using bio-4xCHKT as substrate in presence of 33P-ATP by ProQinase assay relative to control
Sequence of Serine/threonine-protein kinase PAK 1 (Homo sapiens) (Q13153 whole entry, canonical isoform): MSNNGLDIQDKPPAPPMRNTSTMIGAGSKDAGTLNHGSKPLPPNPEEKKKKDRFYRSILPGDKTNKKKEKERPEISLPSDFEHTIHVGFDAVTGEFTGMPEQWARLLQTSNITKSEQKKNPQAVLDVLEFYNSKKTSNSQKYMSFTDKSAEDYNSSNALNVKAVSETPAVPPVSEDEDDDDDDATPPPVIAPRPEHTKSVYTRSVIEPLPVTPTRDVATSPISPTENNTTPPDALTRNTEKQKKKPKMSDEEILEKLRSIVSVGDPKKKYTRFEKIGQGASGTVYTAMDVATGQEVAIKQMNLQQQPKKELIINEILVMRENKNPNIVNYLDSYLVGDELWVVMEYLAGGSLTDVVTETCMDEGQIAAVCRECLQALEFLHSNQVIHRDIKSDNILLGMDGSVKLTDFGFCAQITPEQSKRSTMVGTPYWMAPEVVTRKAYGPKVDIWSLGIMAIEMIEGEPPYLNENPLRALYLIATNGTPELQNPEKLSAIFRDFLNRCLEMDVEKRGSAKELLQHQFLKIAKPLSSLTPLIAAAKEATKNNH

[26] = test system: Phosphatidylinositol 4,5-bisphosphate 3-kinase catalytic subunit alpha isoform (Homo sapiens), P42336 [E542K]; test: Inhibition of PIK3CA E542K mutant (unknown origin) assessed as remaining activity at 1 uM by Kinome scan method relative to control
[27] = target: Serine/threonine-protein kinase mTOR (Homo sapiens) (UniProt P42345); test: Inhibition of human mTOR assessed as residual activity at 1 uM using casein as substrate in presence of 33P-ATP by ProQinase assay relative to control

Sequence of CYP3A4 (P08684 whole entry): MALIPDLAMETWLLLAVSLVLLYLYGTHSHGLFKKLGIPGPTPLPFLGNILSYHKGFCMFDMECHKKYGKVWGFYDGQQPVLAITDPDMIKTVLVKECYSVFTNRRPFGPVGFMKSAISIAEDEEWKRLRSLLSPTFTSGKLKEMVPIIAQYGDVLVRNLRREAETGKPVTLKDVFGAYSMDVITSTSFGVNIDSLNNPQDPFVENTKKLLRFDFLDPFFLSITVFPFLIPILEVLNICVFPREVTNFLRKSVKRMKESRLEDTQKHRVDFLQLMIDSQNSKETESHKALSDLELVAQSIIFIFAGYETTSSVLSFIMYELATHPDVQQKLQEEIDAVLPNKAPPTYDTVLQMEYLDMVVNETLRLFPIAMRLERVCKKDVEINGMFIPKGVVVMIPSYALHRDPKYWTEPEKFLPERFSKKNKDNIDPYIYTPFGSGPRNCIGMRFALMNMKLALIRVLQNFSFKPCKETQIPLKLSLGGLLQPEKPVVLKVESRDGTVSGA
Sequence of Tyrosine-protein kinase HCK (Homo sapiens) (P08631 2-526 limits assumed): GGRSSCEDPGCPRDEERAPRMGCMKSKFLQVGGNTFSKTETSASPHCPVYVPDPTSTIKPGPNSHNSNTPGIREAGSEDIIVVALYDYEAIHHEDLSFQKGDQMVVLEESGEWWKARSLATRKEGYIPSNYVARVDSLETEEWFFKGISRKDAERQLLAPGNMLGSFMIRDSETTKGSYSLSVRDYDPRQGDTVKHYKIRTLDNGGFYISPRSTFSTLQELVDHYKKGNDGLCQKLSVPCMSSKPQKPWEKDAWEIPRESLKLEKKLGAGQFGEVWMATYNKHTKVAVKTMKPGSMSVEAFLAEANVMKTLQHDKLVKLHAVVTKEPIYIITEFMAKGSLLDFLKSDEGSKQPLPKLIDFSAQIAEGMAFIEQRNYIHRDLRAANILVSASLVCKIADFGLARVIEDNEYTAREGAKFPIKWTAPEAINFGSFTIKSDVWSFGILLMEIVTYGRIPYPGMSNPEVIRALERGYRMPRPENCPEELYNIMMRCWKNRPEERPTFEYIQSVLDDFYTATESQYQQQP

Molecule `O=C1c2ccc(Nc3ccc(F)cc3F)cc2CCc2ccc(OC[C@H](O)CO)cc21` [Skepinone-L] has an inhibition at 10 µM (CYP3A4) of 34%, an Activity [1] of 98% and an Activity [2] of 100%. It also gave an Activity [3] of 100%, an Activity [4] of 96% and an Activity [5] of 119%. For the same molecule, the Activity [6] was 98%, the Activity [7] was 100% and the Activity [8] was 93%. It also gave an Activity [9] of 108%, an Activity [10] of 103% and an Activity [11] of 90%. For the same molecule, the Activity [12] was 87%, the Activity [13] was 77% and the Activity [14] was 98%. It also gave an Activity [15] of 100%, an Activity [16] of 96% and an Activity [17] of 92%. For the same molecule, the inhibition at 10 µM (CYP2D6) was -21%, the Activity [18] was 98% and the IC50 [19] was 30 nM. For the same molecule, the Activity [20] was 100%, the Activity [21] was 97% and the Activity [22] was 100%. The Activity [23] was 101%, the Activity [24] was 100% and the Activity [25] was 100%. For the same molecule, the Activity [26] was 100% and the Activity [27] was 97%.
